Among the test systems are A549 NSCLC; DLD-1 colon; DMS 114 small cell lung; DMS 273 small cell lung; HOP-18 NSCLC; KM20L2 colon; LXFL 529 NSCLC; RXF-631 renal; SF-295 CNS; SNB-78 CNS; UACC-257 melanoma; XF 498 CNS; BT-549 breast; M19-MEL melanoma; RPMI-8226 leukemia.
Common to all, as to experiment: NCI-60 cell line screen, 48 h

Structures are written as SMILES.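 Exposure lasted 48 hours, with cells grown in 96-well plates and compounds tested at five concentrations. TGI is the concentration that stops growth completely.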 Bounds are passed on as bounds.

Regarding `COC(=O)C(CCC1(C)OCCO1)=[N+]=[N-]`, the TGI in the test with A549 NSCLC, in the test with DLD-1 colon, in the test with DMS 114 small cell lung, in the test with DMS 273 small cell lung, with HOP-18 NSCLC and in the test on KM20L2 colon was > 100 µM in each case. Besides, the TGI in the test with LXFL 529 NSCLC, with RXF-631 renal, with SF-295 CNS, with SNB-78 CNS, in the test on UACC-257 melanoma and with XF 498 CNS was > 100 µM in each case.
For `COc1ccc(-c2oc3cc(O)c(OC)c(O)c3c(=O)c2O)cc1`, the TGI with A549 NSCLC was 18 µM; in the test with BT-549 breast, 72.8 µM; in the test on DLD-1 colon, 30.8 µM; with DMS 273 small cell lung, 30 µM; in the test with HOP-18 NSCLC it was > 100 µM; in the test on KM20L2 colon it was > 100 µM. In addition, the TGI was > 100 µM in the test on LXFL 529 NSCLC; > 100 µM in the test on M19-MEL melanoma; 31.5 µM with RPMI-8226 leukemia; > 100 µM in the test on RXF-631 renal; 53.6 µM in the test with SF-295 CNS; > 100 µM with SNB-78 CNS. The TGI with UACC-257 melanoma and in the test with XF 498 CNS was > 100 µM each time.
Regarding `N#COc1ccc(Oc2ccc(OC#N)cc2)cc1`, the TGI in the test with A549 NSCLC was > 100 µM; in the test on DLD-1 colon it was > 100 µM; with DMS 114 small cell lung, 92.7 µM; with HOP-18 NSCLC, > 100 µM; with KM20L2 colon, > 100 µM; in the test on LXFL 529 NSCLC, > 100 µM. Further, the TGI with M19-MEL melanoma, in the test on RPMI-8226 leukemia, with RXF-631 renal, in the test on SF-295 CNS, in the test with SNB-78 CNS and in the test on UACC-257 melanoma was > 100 µM throughout. Moreover, the TGI with XF 498 CNS was > 100 µM.
For the compound `CN(C)CCC[N+]1=Nc2cccc3cccc(c23)N1`, the TGI in the test with A549 NSCLC was > 100 µM; in the test with DLD-1 colon, 35.8 µM; with DMS 114 small cell lung, > 100 µM; in the test on DMS 273 small cell lung it was 59.5 µM; with HOP-18 NSCLC it was > 100 µM; in the test with KM20L2 colon, > 100 µM. The TGI was > 100 µM in the test on LXFL 529 NSCLC; > 100 µM with M19-MEL melanoma; 47.3 µM with RPMI-8226 leukemia; > 100 µM with RXF-631 renal; > 100 µM in the test on SF-295 CNS; > 100 µM with SNB-78 CNS. Besides, the TGI in the test on UACC-257 melanoma and in the test on XF 498 CNS was > 100 µM each time.
`COc1ccc(C2=Nc3ccccc3N=C(SC)C2)cc1`: the TGI in the test with A549 NSCLC, in the test on DLD-1 colon, in the test with DMS 114 small cell lung, in the test on DMS 273 small cell lung, in the test with HOP-18 NSCLC and in the test with KM20L2 colon was > 100 µM throughout. Moreover, the TGI was > 100 µM with LXFL 529 NSCLC; > 100 µM with M19-MEL melanoma; > 100 µM in the test with RXF-631 renal; > 100 µM with SF-295 CNS; > 100 µM with SNB-78 CNS; 65.7 µM in the test on UACC-257 melanoma. The TGI in the test on XF 498 CNS was > 100 µM.
As for `CC(=O)Nc1ccc(/C=c2\sc3nnc(-c4cccnc4)n3c2=O)cc1`, the TGI in the test on A549 NSCLC is > 100 µM; in the test with DLD-1 colon, 40.7 µM; in the test on DMS 114 small cell lung it was 32.4 µM; in the test on DMS 273 small cell lung, 68.5 µM; with HOP-18 NSCLC, 55.6 µM; with KM20L2 colon it was 38.6 µM. For the same compound, the TGI in the test with LXFL 529 NSCLC is 30.8 µM; in the test on M19-MEL melanoma it was 37.4 µM; in the test with RXF-631 renal it was 55.2 µM; in the test on SF-295 CNS, > 100 µM; in the test on SNB-78 CNS, > 100 µM; in the test with UACC-257 melanoma it was 49 µM.

These data come from PubChem BioAssay (NCI).
